Source: patent US8778958B2, “Synthesis of metabolically stable agents for alcohol and drug abuse” (priority 2008, dated 2014)

How the values were obtained:
μ-opioid receptor [1] = target: T1, μ-opioid receptor (Mus musculus, UniProt P42866); assay: biochemical; set-up: species or system human; details: percentage of basal [35S]GTPγS binding stimulation
T1 construct: FLAG; expressed in transfected cells

δ-opioid receptor [2] = target: T2, δ-opioid receptor (Mus musculus, UniProt P32300); assay: biochemical; set-up: species or system human; details: percentage of basal [35S]GTPγS binding stimulation
T2 construct: hemagglutinin (HA); expressed in transfected cells

κ-opioid receptor [3] = target: T3, κ-opioid receptor (Mus musculus, UniProt P33534); assay: biochemical; set-up: species or system human; details: percentage of basal [35S]GTPγS binding stimulation
T3 construct: FLAG; expressed in transfected cells

μ-opioid receptor [4] = target: T1, μ-opioid receptor; assay: biochemical; format: biochemical, human
δ-opioid receptor [5] = target: T2, δ-opioid receptor; assay: biochemical; format: biochemical, human
κ-opioid receptor [6] = target: T3, κ-opioid receptor; assay: biochemical; format: biochemical, human
[7] = target: T4, NOP (nociceptin) receptor (Homo sapiens, UniProt P41146)
[8] = target: T4, NOP (nociceptin) receptor; assay: Inhibition of basal [35S]GTPγS binding (inverse agonism), NOP; format: biochemical; set-up: FLAG; expressed in transfected cells
CYP2B6 = target: T5, CYP2B6 (Homo sapiens, UniProt P20813); assay: CYP inhibition, CYP2B6 (Vivid Blue substrate); details: 10 μM test compound; ND = no detectable inhibition
T5 sequence (P20813 1-491): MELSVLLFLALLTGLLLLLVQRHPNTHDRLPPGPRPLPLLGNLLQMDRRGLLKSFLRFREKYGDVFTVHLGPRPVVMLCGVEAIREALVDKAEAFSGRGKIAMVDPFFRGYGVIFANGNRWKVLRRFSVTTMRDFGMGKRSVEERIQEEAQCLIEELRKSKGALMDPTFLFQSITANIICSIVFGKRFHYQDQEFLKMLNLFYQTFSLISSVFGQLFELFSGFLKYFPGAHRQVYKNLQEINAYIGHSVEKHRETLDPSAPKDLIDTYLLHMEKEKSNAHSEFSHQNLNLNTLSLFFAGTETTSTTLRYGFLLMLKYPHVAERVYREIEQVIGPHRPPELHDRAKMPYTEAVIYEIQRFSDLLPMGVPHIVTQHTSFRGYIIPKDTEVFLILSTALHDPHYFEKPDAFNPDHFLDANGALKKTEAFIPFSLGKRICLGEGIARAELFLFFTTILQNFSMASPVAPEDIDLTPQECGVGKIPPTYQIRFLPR

CYP2D6 = CYP2D6 (Homo sapiens, UniProt P10635); assay: CYP inhibition, CYP2D6 (Vivid Blue substrate); details: 10 μM test compound; ND = no detectable inhibition
CYP2C19 = CYP2C19 (Homo sapiens, UniProt P33261); assay: CYP inhibition, CYP2C19 (Vivid Blue substrate); details: 10 μM test compound; ND = no detectable inhibition
CYP2C9 = CYP2C9 (Homo sapiens, UniProt P11712); assay: CYP inhibition, CYP2C9 (diclofenac hydroxylase); details: 10 μM test compound; ND = no detectable inhibition
CYP3A4 = CYP3A4 (Homo sapiens, UniProt P08684); assay: CYP inhibition, CYP3A4 (testosterone 6-hydroxylation); details: 10 μM test compound; ND = no detectable inhibition
[9] = target: T4, NOP (nociceptin) receptor; assay: Stimulation of [35S]GTPγS binding (agonist activity), NOP; details: read-out: EC50, NOP, stimulation of [35S]GTPγS binding; cells printed in μM

T4 sequence (P41146 whole entry): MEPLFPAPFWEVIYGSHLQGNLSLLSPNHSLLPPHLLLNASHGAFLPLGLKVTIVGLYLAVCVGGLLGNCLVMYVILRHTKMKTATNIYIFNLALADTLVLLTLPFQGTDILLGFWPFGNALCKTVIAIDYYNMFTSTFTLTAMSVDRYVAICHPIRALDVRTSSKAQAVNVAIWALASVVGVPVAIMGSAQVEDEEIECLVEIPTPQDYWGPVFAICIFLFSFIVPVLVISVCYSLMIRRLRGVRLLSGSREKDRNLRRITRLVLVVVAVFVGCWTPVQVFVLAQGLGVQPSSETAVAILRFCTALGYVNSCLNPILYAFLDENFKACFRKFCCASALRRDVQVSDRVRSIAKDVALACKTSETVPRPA
T1 sequence (P42866 whole entry): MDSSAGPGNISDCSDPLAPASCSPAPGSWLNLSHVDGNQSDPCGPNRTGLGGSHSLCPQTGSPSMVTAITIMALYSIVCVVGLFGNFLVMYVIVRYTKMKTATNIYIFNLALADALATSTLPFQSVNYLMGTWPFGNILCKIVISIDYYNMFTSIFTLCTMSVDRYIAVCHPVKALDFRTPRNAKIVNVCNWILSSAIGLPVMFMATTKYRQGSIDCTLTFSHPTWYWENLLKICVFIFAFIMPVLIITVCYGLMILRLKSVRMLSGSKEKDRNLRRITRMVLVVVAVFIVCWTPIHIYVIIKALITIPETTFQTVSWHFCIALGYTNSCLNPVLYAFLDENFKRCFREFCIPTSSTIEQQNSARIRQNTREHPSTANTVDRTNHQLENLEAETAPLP
T2 sequence (P32300 whole entry): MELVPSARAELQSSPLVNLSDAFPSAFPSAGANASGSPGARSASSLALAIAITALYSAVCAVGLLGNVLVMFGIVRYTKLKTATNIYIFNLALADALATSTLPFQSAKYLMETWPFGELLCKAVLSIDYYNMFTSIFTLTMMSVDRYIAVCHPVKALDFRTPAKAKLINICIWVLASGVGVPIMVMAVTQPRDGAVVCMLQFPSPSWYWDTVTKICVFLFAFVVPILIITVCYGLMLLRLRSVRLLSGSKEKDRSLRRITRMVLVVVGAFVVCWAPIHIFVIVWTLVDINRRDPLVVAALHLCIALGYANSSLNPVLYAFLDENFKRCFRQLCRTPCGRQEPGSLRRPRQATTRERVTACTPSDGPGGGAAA
T3 sequence (P33534 whole entry): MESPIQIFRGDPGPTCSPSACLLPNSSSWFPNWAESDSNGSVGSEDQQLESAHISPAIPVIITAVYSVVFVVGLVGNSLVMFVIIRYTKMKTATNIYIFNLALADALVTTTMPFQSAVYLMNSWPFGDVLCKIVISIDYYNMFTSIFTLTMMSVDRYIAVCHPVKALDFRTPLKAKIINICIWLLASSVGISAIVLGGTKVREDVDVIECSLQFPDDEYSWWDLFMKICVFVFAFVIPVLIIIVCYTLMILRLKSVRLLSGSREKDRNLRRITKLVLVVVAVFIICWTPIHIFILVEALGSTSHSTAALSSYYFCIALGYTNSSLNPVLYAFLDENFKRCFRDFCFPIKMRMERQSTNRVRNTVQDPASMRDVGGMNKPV
Chain of CYP3A4 (P08684 whole entry): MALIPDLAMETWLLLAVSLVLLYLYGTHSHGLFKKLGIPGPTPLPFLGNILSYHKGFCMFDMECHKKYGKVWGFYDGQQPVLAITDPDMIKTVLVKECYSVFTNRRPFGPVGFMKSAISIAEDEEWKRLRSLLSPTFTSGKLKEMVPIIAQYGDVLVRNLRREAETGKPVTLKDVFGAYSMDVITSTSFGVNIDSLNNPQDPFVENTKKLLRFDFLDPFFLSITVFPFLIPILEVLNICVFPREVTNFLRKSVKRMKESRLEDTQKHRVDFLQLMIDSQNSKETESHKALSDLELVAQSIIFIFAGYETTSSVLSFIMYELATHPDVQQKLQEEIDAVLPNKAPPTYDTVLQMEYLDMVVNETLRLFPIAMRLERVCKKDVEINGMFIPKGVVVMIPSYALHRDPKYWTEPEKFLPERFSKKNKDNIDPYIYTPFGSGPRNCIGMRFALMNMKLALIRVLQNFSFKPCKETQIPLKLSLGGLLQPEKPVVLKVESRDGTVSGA
Chain of CYP2D6 (P10635 whole entry): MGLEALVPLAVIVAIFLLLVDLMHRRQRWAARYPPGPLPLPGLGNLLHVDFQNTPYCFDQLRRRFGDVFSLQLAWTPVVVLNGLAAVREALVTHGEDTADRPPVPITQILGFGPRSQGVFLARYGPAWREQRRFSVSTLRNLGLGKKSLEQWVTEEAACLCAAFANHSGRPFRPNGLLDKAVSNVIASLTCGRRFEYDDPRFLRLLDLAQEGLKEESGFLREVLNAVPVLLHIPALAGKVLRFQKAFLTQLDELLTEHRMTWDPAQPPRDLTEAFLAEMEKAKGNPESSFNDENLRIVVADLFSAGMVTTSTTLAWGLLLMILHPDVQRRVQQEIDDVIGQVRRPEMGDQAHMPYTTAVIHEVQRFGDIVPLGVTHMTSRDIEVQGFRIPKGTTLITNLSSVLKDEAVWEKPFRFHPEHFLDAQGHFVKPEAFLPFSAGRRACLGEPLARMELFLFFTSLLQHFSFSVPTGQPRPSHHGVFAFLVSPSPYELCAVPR
Chain of CYP2C9 (P11712 whole entry): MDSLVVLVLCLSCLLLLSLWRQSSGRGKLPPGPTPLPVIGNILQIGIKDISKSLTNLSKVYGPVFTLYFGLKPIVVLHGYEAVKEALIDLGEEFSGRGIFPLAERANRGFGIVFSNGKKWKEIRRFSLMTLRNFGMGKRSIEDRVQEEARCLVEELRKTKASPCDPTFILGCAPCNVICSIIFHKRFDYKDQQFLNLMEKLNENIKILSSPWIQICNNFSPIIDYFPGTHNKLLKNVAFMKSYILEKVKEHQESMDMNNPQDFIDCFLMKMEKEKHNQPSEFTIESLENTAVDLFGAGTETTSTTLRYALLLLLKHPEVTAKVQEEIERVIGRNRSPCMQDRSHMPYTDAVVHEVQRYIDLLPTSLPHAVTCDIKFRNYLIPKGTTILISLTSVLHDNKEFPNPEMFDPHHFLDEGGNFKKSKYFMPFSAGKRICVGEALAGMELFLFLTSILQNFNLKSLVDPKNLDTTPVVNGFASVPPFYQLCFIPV
Chain of CYP2C19 (P33261 whole entry): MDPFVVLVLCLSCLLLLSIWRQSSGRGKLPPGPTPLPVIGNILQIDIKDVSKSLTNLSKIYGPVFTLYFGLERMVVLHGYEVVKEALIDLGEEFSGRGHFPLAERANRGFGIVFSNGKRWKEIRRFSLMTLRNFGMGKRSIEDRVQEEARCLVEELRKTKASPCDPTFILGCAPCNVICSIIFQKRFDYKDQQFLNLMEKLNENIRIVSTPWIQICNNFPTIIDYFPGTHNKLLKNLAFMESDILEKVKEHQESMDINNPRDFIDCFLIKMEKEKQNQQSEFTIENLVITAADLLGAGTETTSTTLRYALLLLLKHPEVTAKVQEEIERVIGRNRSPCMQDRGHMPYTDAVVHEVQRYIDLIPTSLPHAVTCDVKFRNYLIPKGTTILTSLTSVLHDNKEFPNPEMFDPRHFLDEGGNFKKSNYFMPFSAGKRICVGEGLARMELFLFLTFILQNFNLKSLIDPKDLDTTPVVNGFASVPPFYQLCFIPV

## O=C(N[C@@H]1CC[C@@]2(O)[C@H]3Cc4ccc(O)c5c4[C@@]2(CCN3CC2CC2)[C@H]1O5)c1ccc(Cl)c(Cl)c1 [Compound 9, 6-β-(3′,4′-Dichloro)benzamido-14-hydroxy-17-(cyclopropylmethyl)nordesmorphine]
μ-opioid receptor [1]
  Emax, μ, stimulation of [35S]GTPγS binding: 85 ± 7.4%
δ-opioid receptor [2]
  Emax, δ, stimulation of [35S]GTPγS binding: 85 ± 35%
κ-opioid receptor [3]
  Emax, κ, stimulation of [35S]GTPγS binding: 80 ± 7.4%
μ-opioid receptor [4]
  Emax, μ, inhibition of basal [35S]GTPγS binding: 0%
δ-opioid receptor [5]
  Emax, δ, inhibition of basal [35S]GTPγS binding: 0%
κ-opioid receptor [6]
  Emax, κ, inhibition of basal [35S]GTPγS binding: 0%
[7]
  Emax: 0%
[8]
  EC50: 0.1 nM
  Emax, NOP, inhibition of basal [35S]GTPγS binding: 87 ± 6.9%
CYP2B6
  Percent Inhibition CYP2B6: 5%
CYP2D6
  Percent Inhibition CYP2D6: 10%
CYP2C19
  Percent Inhibition CYP2C19: 39%
CYP2C9
  Percent Inhibition CYP2C9: 7%
CYP3A4
  Percent Inhibition CYP3A4: 11%
[9]
  EC50: > 10 µM
